This is an account of results in ChEMBL document CHEMBL4622870, “Design, synthesis and evaluation of hydrazine and acyl hydrazone derivatives of 5-pyrrolidin-2-one as antifungal agents” (Bioorg Med Chem Lett, 2020).

The structures appear in SMILES notation.

Data set [1] deals with Cladosporium cladosporioides. As to the kind of experiment: Antifungal activity against Cladosporium cladosporioides assessed as fungal growth inhibition at 100 ug/ml by micro-dilution method relative to control. In kind it is functional. Conditions: read-out: GI.
The next data set deals with Pichia kudriavzevii. As to the kind of experiment: Antifungal activity against Candida krusei assessed as fungal growth inhibition at 100 ug/ml by micro-dilution method relative to control. The class given is functional. The conditions noted are these: read-out: GI.
For data set [2], the system named is Geotrichum candidum. The data set is described as follows: Antifungal activity against Geotrichum candidum assessed as fungal growth inhibition by micro-dilution method. The class given is functional.
Data set [3] relates to Geotrichum candidum. The data set is described as follows: Antifungal activity against Geotrichum candidum assessed as fungal growth inhibition at 100 ug/ml by micro-dilution method relative to control. The class given is functional. Conditions: read-out: GI.
In data set [4] the test system is Fusarium solani. The data set is described as follows: Antifungal activity against Fusarium solani assessed as fungal growth inhibition at 100 ug/ml by micro-dilution method relative to control. In kind it is functional. The conditions noted are these: read-out: GI.
Data set [5] relates to Paecilomyces variotii. As to the kind of experiment: Antifungal activity against Paecilomyces variotii assessed as fungal growth inhibition at 100 ug/ml by micro-dilution method relative to control. The class given is functional. The conditions noted are these: read-out: GI.
The subject of data set [6] is Kluyveromyces marxianus. As to the kind of experiment: Antifungal activity against Candida pseudotropicalis assessed as fungal growth inhibition at 100 ug/ml by micro-dilution method relative to control. The class given is functional. Conditions: read-out: GI.
The next data set relates to Botrytis cinerea. The data set is described as follows: Antifungal activity against Botrytis cinerea assessed as fungal growth inhibition at 100 ug/ml by micro-dilution method relative to control. In kind it is functional. The conditions noted are these: read-out: GI.
The test system of data set [7] is Sclerotinia sclerotiorum. As to the kind of experiment: Antifungal activity against Sclerotinia sclerotiorum assessed as fungal growth inhibition at 100 ug/ml by micro-dilution method relative to control. The class given is functional. Conditions: read-out: GI.
Data set [8] concerns Cladosporium cladosporioides. As to the kind of experiment: Antifungal activity against Cladosporium cladosporioides assessed as fungal growth inhibition by micro-dilution method. In kind it is functional.
In data set [9] the test system is Aspergillus oryzae. As to the kind of experiment: Antifungal activity against Aspergillus oryzae assessed as fungal growth inhibition at 100 ug/ml by micro-dilution method relative to control. The class given is functional. Conditions: read-out: GI.
For data set [10], the system named is Alternaria alternata. The data set is described as follows: Antifungal activity against Alternaria alternata assessed as fungal growth inhibition at 100 ug/ml by micro-dilution method relative to control. In kind it is functional. Conditions: read-out: GI.
The subject of data set [11] is Penicillium ochrochloron. The data set is described as follows: Antifungal activity against Penicillium ochrochloron assessed as fungal growth inhibition by micro-dilution method. In kind it is functional.
Another data set has as its system HEK293. The data set is described as follows: Cytotoxicity against human HEK293 cells assessed as effect on cell viability measured after 72 hrs by MTS assay. The class given is cell-based. The conditions noted are these: hek293, 72 h.
Data set [12] relates to Penicillium ochrochloron. As to the kind of experiment: Antifungal activity against Penicillium ochrochloron assessed as fungal growth inhibition at 100 ug/ml by micro-dilution method relative to control. The class given is functional. The conditions noted are these: read-out: GI.
Data set [13] deals with Candida tropicalis. As to the kind of experiment: Antifungal activity against Candida tropicalis assessed as fungal growth inhibition at 100 ug/ml by micro-dilution method relative to control. The class given is functional. Conditions: read-out: GI.
Data set [14] has as its system Fusarium solani. The data set is described as follows: Antifungal activity against Fusarium solani assessed as fungal growth inhibition by micro-dilution method. In kind it is functional.
Data set [15] concerns Candida tropicalis. The data set is described as follows: Antifungal activity against Candida tropicalis assessed as fungal growth inhibition by micro-dilution method. The class given is functional.
The test system of data set [16] is Paecilomyces variotii. As to the kind of experiment: Antifungal activity against Paecilomyces variotii assessed as fungal growth inhibition by micro-dilution method. The class given is functional.
For data set [17], the system named is Alternaria alternata. As to the kind of experiment: Antifungal activity against Alternaria alternata assessed as fungal growth inhibition by micro-dilution method. In kind it is functional.
For data set [18], the system named is Aspergillus oryzae. As to the kind of experiment: Antifungal activity against Aspergillus oryzae assessed as fungal growth inhibition by micro-dilution method. In kind it is functional.
The test system of data set [19] is Sclerotinia sclerotiorum. As to the kind of experiment: Antifungal activity against Sclerotinia sclerotiorum assessed as fungal growth inhibition by micro-dilution method. The class given is functional.
The test system of data set [20] is Kluyveromyces marxianus. The data set is described as follows: Antifungal activity against Candida pseudotropicalis assessed as fungal growth inhibition by micro-dilution method. In kind it is functional.

Consider `O=C1CC[C@@H](C(=O)N/N=C/c2ccc(Cl)cc2)N1`, for which the inhibition of growth at 100 µg/mL in data set [1] worked out at 98%; in the data set with Pichia kudriavzevii it was 26%; in the data set with Geotrichum candidum [3] it was 92%; in the data set with Fusarium solani [4], 61%; in the data set with Paecilomyces variotii [5] it was 27%; in the data set with Kluyveromyces marxianus [6], 50%. Further, the inhibition of growth at 100 µg/mL in the data set on Botrytis cinerea came to 34%; with Sclerotinia sclerotiorum [7] it was 58%; in the data set with Aspergillus oryzae [9], 0%; with Alternaria alternata [10], 20%; in the data set on Penicillium ochrochloron [12] it was 92%; with Candida tropicalis [13] it was 47%. Besides, the MIC50 in the data set on Geotrichum candidum [2] was 1.8 µg/mL; in data set [8], 23.9 µg/mL; in the data set with Penicillium ochrochloron [11], 15.4 µg/mL. The Activity result in the data set with HEK293 is listed as “Non-Toxic”.

For the compound `O=C1CC[C@@H](C(=O)N/N=C/c2ccc(Br)cc2)N1`, the MIC50 in the data set with Fusarium solani [14] was 6.5 µg/mL; with Candida tropicalis [15] it was more than 75 µg/mL; with Geotrichum candidum [2], 5.9 µg/mL; in data set [8] it was 53 µg/mL; in the data set with Penicillium ochrochloron [11] it was 5.3 µg/mL. The inhibition of growth at 100 µg/mL in data set [1] was 72%; in the data set on Pichia kudriavzevii, 0%; in the data set on Geotrichum candidum [3] it was 100%; in the data set with Fusarium solani [4] it was 100%; with Paecilomyces variotii [5], 0%; with Kluyveromyces marxianus [6] it was 2%. Also, the inhibition of growth at 100 µg/mL in the data set with Botrytis cinerea was found to be 40%; in the data set on Sclerotinia sclerotiorum [7], 37%; in the data set with Aspergillus oryzae [9], 43%; with Alternaria alternata [10] it was 0%; in the data set on Penicillium ochrochloron [12] it was 77%; with Candida tropicalis [13], 92%. Also, the Activity entry in the data set with HEK293 is “Non-Toxic”.

On to `O=C1CCC(NNc2ccc(C(F)(F)F)cc2)N1` (racemic), for which the MIC50 in the data set on Fusarium solani [14] was found to be 11.7 µg/mL; with Paecilomyces variotii [16] it was 2 µg/mL; in data set [8], 3.4 µg/mL. Moreover, the inhibition of growth at 100 µg/mL in [1] came out at 81%; in the data set on Pichia kudriavzevii, 51%; in the data set with Geotrichum candidum [3], 22%; with Fusarium solani [4], 100%; in the data set on Paecilomyces variotii [5] it was 82%; in the data set on Kluyveromyces marxianus [6] it was 38%. For the same compound, the inhibition of growth at 100 µg/mL in the data set on Botrytis cinerea was 39%; with Sclerotinia sclerotiorum [7] it was 40%; with Aspergillus oryzae [9], 37%; in the data set on Alternaria alternata [10], 2%; with Penicillium ochrochloron [12], 35%; in the data set with Candida tropicalis [13] it was 51%. Also, the Activity entry with HEK293 is recorded as “Non-Toxic”.

With `O=C1CCC(NNc2cc(F)ccc2F)N1` (racemic), the figures for the MIC50 in the data set with Fusarium solani [14], with Alternaria alternata [17] and in the data set with Penicillium ochrochloron [11] were 24.5 µg/mL, 18.6 µg/mL and 21.1 µg/mL, respectively. Also, the inhibition of growth at 100 µg/mL in [1] was determined as 29%; in the data set with Pichia kudriavzevii, 20%; in the data set with Geotrichum candidum [3], 25%; in the data set on Fusarium solani [4] it was 95%; in the data set on Paecilomyces variotii [5], 17%; with Kluyveromyces marxianus [6], 65%. Moreover, the inhibition of growth at 100 µg/mL was 0% with Botrytis cinerea; 28% in the data set with Sclerotinia sclerotiorum [7]; 0% in the data set with Aspergillus oryzae [9]; 72% in the data set with Alternaria alternata [10]; 73% in the data set on Penicillium ochrochloron [12]; 62% in the data set with Candida tropicalis [13]. Also, in the data set with HEK293, the Activity result was “Non-Toxic”.

With `Cc1cc(O)no1` [HYMEXAZOL], the MIC50 was 15.6 µg/mL in the data set on Fusarium solani [14]; 57.2 µg/mL in the data set with Paecilomyces variotii [16]; 45.7 µg/mL in the data set on Aspergillus oryzae [18]; 38.3 µg/mL in the data set on Alternaria alternata [17]; more than 50 µg/mL in the data set on Geotrichum candidum [2]; 26.5 µg/mL in the data set with Sclerotinia sclerotiorum [19]. Also, the values for the MIC50 (in data set [8]; in the data set with Penicillium ochrochloron [11]) were 28.9 µg/mL and 62.2 µg/mL, respectively.

For `CC(=O)N1CCN(c2ccc(OCC3COC(Cn4ccnc4)(c4ccc(Cl)cc4Cl)O3)cc2)CC1` (configuration not stated) [KETOCONAZOLE], the MIC50 was 15.9 µg/mL in the data set with Candida tropicalis [15], 1.5 µg/mL in the data set on Geotrichum candidum [2] and 9.6 µg/mL in the data set on Kluyveromyces marxianus [20].
